pIC50: −log10 of the molar value. Structures can show the parent of a compound that is named as a salt.
Columns and labels:
[1] = system: solid tumor cancers (colorectal, pancreatic, ovarian, prostate); details: patients, cited from earlier work
recombinant human MMP-1 = molecular target: T1, recombinant human MMP-1 (Homo sapiens, UniProt P03956); experiment: In vitro metalloprotease inhibition, fluorogenic peptide substrate; assay type: biochemical; details: for pIC50: APMA-activated enzyme, room temperature, pH 7.5, substrate 4 μM
T1 construct: made in house; host or cells: transfected HT-1080 cells (provided by Dr. Howard Welgus, Washington University)
T1 sequence (P03956 100-469): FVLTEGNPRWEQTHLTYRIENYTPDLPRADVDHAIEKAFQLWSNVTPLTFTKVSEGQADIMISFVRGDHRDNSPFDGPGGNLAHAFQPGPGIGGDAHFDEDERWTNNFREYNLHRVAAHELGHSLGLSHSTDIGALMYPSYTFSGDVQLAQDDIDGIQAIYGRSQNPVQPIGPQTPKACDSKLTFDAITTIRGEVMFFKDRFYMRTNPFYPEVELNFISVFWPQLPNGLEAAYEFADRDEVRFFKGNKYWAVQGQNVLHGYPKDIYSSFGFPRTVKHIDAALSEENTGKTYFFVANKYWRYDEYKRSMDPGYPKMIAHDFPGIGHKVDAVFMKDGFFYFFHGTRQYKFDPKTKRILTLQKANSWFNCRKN
Text: (§1) MMP-13 was expressed in baculovirus as a proenzyme, and purified first over a heparin agarose column and then over a chelating zinc chloride column. The proenzyme was activated by APMA for use in the assay. […] The enzyme was also activated using APMA and was then purified over a hydroxamic acid column.

recombinant human MMP-13 = molecular target: T2, recombinant human MMP-13 (Homo sapiens, UniProt P45452); experiment: as above; assay type: biochemical; details: for pIC50: APMA-activated enzyme, room temperature, pH 7.5, substrate 4 μM
T2 construct: made in house
Text: as §1

[2] = system: neovascularization of the corneal stroma; experiment: In vivo angiogenesis assay (corneal micropocket); details: mouse cornea, bFGF/sucralfate pellet, daily dosing, scored at day five; exemplary dose 50 mg/kg bid, po
Experimental: The study of angiogenesis depends on a reliable and reproducible model for the stimulation and inhibition of a neovascular response. The corneal micropocket assay provides such a model of angiogenesis in the cornea of a mouse.
In this assay, uniformly sized Hydron™ pellets containing bFGF and sucralfate were prepared and surgically implanted into the stroma mouse cornea adjacent to the temporal limbus. The pellets were formed by making a suspension of 20 μL sterile saline containing 10 μg recombinant bFGF, 10 mg of sucralfate and 10 μL of 12 percent Hydron™ in ethanol. The slurry was then deposited on a 10×10 mm piece of sterile nylon mesh. […]
Mice were dosed on a daily basis for the duration of the assay. […] At day five, the degree of angiogenic inhibition was scored by viewing the neovascular progression with a slit lamp microscope.
The mice were anesthetized and the studied eye was once again proptosed. The maximum vessel length of neovascularization, extending from the limbal vascular plexus toward the pellet was measured. In addition, the contiguous circumferential zone of neovascularization was measured as clock hours, where 30 degrees of arc equals one clock hour. The area of angiogenesis was calculated as follows. […]
The studied mice were thereafter compared to control mice and the difference in the area of neovascularization was recorded.

| SMILES | pIC50 (recombinant human MMP-1) | pIC50 (recombinant human MMP-13) | further results |
| --- | --- | --- | --- |
| CNC(=O)[C@@H](NC(=O)[C@H](CC(C)C)[C@H](O)C(=O)NO)C(C)(C)C [marimastat] |  |  | effect on cancer-specific antigens used as surrogate markers for biological activity ([1]; Phase I/II studies, meta analysis): dose-related reduction in the rise of cancer-specific antigens; most common drug-related toxicity ([1]; clinical trials): musculoskeletal pain and stiffness |
| COc1cccc(CN2CCC(CS(=O)(=O)c3ccc(Oc4ccccc4)cc3)(C(=O)NO)CC2)c1 [Example 3, N-Hydroxy-1-[(3-methoxyphenyl)methyl]-4-[[(4-phenoxyphenyl)sulfonyl]methyl]-4-piperidinecarboxamide, Monohydrochloride] | 6.48 | 9.40 |  |
| Cl.O=C(Nc1ccc(S(=O)(=O)CC2(C(=O)NO)CCNCC2)cc1)c1ccccc1 [Example 1, N-hydroxy-4-[[[4-(benzoylamino)phenyl]sulfonyl]methyl]-4-piperidinecarboxamide, monohydrochloride] | < 5.00 | 6.61 | activity against MMP-1 (in words) (recombinant human MMP-1; comment on Table 13): virtually unbound; activity against MMP-13 (in words) (recombinant human MMP-13; comment on Table 13): moderate activity |
| O=C(NO)C1(CS(=O)(=O)c2ccc(Oc3ccccc3)cc2)CCN(CCc2ccccc2)CC1 [Example 2, N-Hydroxy-4-[[(4-phenoxyphenyl)sulfonyl]-methyl]-1-(2-phenylethyl)-4-piperidinecarboxamide, Monohydrochloride] | 6.15 |  |  |
| CC(C)(C)OC(=O)N1CCC(CS(=O)(=O)c2ccc(Oc3ccccc3)cc2)(C(=O)NO)CC1 [Example 5, 1,1-Dimethylethyl Ester 4-[(Hydroxyamino)-carbonyl]-4-[[(4-phenoxyphenyl]sulfonyl]methyl]-1-piperidinecarboxylic Acid] | 6.32 | 9.70 |  |
| Cl.O=C(NO)C1(CS(=O)(=O)c2ccc(Oc3ccccc3)cc2)CCNCC1 [Example 6, N-Hydroxy-4-[[(4-phenoxyphenyl)sulfonyl]-methyl]-4-piperidinecarboxamide, Monohydrochloride] | 5.62 | 8.10 | inhibition of area of neovascularization versus control mice [2]: 80.0% |
| C#CCN1CCC(CS(=O)(=O)c2ccc(Oc3ccccc3)cc2)(C(=O)NO)CC1 [Example 4, N-Hydroxy-4-[[(4-phenoxyphenyl)sulfonyl]-methyl]-1-(2-propynyl)-4-piperidinecarboxamide, Monohydrochloride] | 6.31 | 9.22 |  |
| C#CCN1CCCC1(CS(=O)(=O)c1ccc(Oc2ccccc2)cc1)C(=O)NO (stereo not drawn) [Example 8, N-Hydroxy-2-[[(4-phenoxyphenyl)sulfonyl]-methyl]-1-(2-propynyl)-2-pyrrolidine Carboxamide, Monohydrochloride] |  | 8.89 |  |
| C#CCN1CCC(CS(=O)(=O)c2ccc(Oc3ccc(C)c(C)c3)cc2)(C(=O)NO)CC1 [Example 7, N-Hydroxy-4-[[[4-(3,4-dimethylphenoxy)phenyl]sulfonyl]-methyl]-1-(2-propynyl)-4-piperidinecarboxamide, Monohydrochloride] |  | 9.07 |  |
